Data from patent US8802597B2, “Herbicidal pyrimidines” (E I du Pont de Nemours and Company, priority 2003, dated 2014).

How the values were obtained:
Type in all cases: in vivo
[1] = tested on: transplanted rice seedlings (Oryza sativa cv. ‘Japonica-M202’); assay: Test E flooded paddy water application; settings: Flood, 21 days, scale 0 to 100 (0 no effect, 100 complete control)
Method in brief: (§1)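 Response scored visually on a 0–100 scale (100 = complete control) at 21 days against untreated pots. Treatment was into paddy water 3 cm deep over silt loam, with plants at the 2.0–2.5-leaf stage, grown under 16-h light at 29.5/26.7 °C day/night.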

[2] = tested on: ducksalad (Heteranthera limosa); assay: Test E flooded paddy water application; settings: Flood, 21 days, scale 0 to 100 (0 no effect, 100 complete control)
Method in brief: as §1

[3] = tested on: barnyardgrass (Echinochloa crus-galli); assay: Test E flooded paddy water application; settings: Flood, 21 days, scale 0 to 100 (0 no effect, 100 complete control)
Method in brief: as §1

[4] = tested on: early watergrass (Echinochloa oryzoides); assay: Test E flooded paddy water application; settings: Flood, 21 days, scale 0 to 100 (0 no effect, 100 complete control)
Method in brief: as §1

[5] = tested on: rice flatsedge (Cyperus iria); assay: Test E flooded paddy water application; settings: Flood, 21 days, scale 0 to 100 (0 no effect, 100 complete control)
Method in brief: as §1

[6] = tested on: junglerice (Echinochloa colona); assay: Test E flooded paddy water application; settings: Flood, 21 days, scale 0 to 100 (0 no effect, 100 complete control)
Method in brief: as §1

[7] = tested on: purple redstem (Ammannia coccinea); assay: Test E flooded paddy water application; settings: Flood, 21 days, scale 0 to 100 (0 no effect, 100 complete control)
Method in brief: as §1

[8] = tested on: smallflower umbrella sedge (Cyperus difformis); assay: Test E flooded paddy water application; settings: Flood, 21 days, scale 0 to 100 (0 no effect, 100 complete control)
Method in brief: as §1

[9] = tested on: bearded (brdd.) sprangletop (Leptochloa fusca ssp. fascicularis); assay: Test E flooded paddy water application; settings: Flood, 21 days, scale 0 to 100 (0 no effect, 100 complete control)
Method in brief: as §1

[10] = tested on: late watergrass (Echinochloa oryzicola); assay: Test E flooded paddy water application; settings: Flood, 21 days, scale 0 to 100 (0 no effect, 100 complete control)
Method in brief: as §1

[11] = tested on: water seeded rice seedlings (Oryza sativa cv. ‘Japonica-M202’); assay: Test E flooded paddy water application; settings: Flood, 21 days, scale 0 to 100 (0 no effect, 100 complete control)
Method in brief: as §1

[12] = tested on: velvetleaf (Abutilon theophrasti); assay: Test A pre/postemergence
Method in brief: (§2)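 Greenhouse herbicide test with preemergence directed soil spray and postemergence foliar spray at the 1- to 2-leaf stage; visual control rating 0–100 versus untreated at ~10 days.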

[13] = tested on: barnyardgrass (Echinochloa crus-galli); assay: Test A pre/postemergence
Method in brief: as §2

[14] = tested on: crabgrass (Digitaria sanguinalis); assay: Test A pre/postemergence
Method in brief: as §2

[15] = tested on: redroot pigweed (Amaranthus retroflexus); assay: Test A pre/postemergence
Method in brief: as §2

[16] = tested on: giant foxtail (Setaria faberi); assay: Test A pre/postemergence
Method in brief: as §2

[17] = tested on: morningglory (Ipomoea spp.); assay: Test A pre/postemergence
Method in brief: as §2

[18] = Postemergence, 125 g ai/ha, 0 to 100 scale (0 no effect, 100 complete control)
[19] = Postemergence, 500 g ai/ha, 0 to 100 scale (0 no effect, 100 complete control)
[20] = Preemergence, 125 g ai/ha, 0 to 100 scale where 0 is no effect and 100 is complete control, approximately ten days
[21] = Preemergence, 500 g ai/ha, 0 to 100 scale where 0 is no effect and 100 is complete control, approximately ten days

## CCOC(=O)c1nc(-c2ccc(Cl)cc2F)nc(N)c1Br [Compound 69]
[1]; 32 g ai/ha
  Rice, Transplanted plant response rating: 0
[1]; 64 g ai/ha
  Rice, Transplanted plant response rating: 0
[1]; 125 g ai/ha
  Rice, Transplanted plant response rating: 0
[1]; 250 g ai/ha
  Rice, Transplanted plant response rating: 0
[1]; 16 g ai/ha
  Plant response rating, Rice, Transplanted: 0
[2]; 32 g ai/ha
  Ducksalad plant response rating: 100
[2]; 64 g ai/ha
  Ducksalad plant response rating: 100
[2]; 125 g ai/ha
  Ducksalad plant response rating: 100
[2]; 250 g ai/ha
  Ducksalad plant response rating: 100
[2]; 16 g ai/ha
  Plant response rating, Ducksalad: 95
[3]; 32 g ai/ha
  Barnyardgrass plant response rating: 0
[3]; 64 g ai/ha
  Barnyardgrass plant response rating: 0
[3]; 125 g ai/ha
  Barnyardgrass plant response rating: 0
[3]; 16 g ai/ha
  Plant response rating, Barnyardgrass: 0
[4]; 32 g ai/ha
  Watergrass, Early plant response rating: 0
[4]; 64 g ai/ha
  Watergrass, Early plant response rating: 0
[4]; 125 g ai/ha
  Watergrass, Early plant response rating: 0
[4]; 250 g ai/ha
  Watergrass, Early plant response rating: 0
[4]; 16 g ai/ha
  Plant response rating, Watergrass, Early: 0
[5]; 32 g ai/ha
  Flatsedge, Rice plant response rating: 70
[5]; 64 g ai/ha
  Flatsedge, Rice plant response rating: 100
[5]; 125 g ai/ha
  Flatsedge, Rice plant response rating: 100
[5]; 250 g ai/ha
  Flatsedge, Rice plant response rating: 100
[5]; 16 g ai/ha
  Plant response rating, Flatsedge, Rice: 65
[6]; 32 g ai/ha
  Junglerice plant response rating: 0
[6]; 64 g ai/ha
  Junglerice plant response rating: 0
[6]; 125 g ai/ha
  Junglerice plant response rating: 0
[6]; 250 g ai/ha
  Junglerice plant response rating: 0
[6]; 16 g ai/ha
  Plant response rating, Junglerice: 0
[7]; 32 g ai/ha
  Redstem plant response rating: 0
[7]; 64 g ai/ha
  Redstem plant response rating: 0
[7]; 125 g ai/ha
  Redstem plant response rating: 0
[7]; 250 g ai/ha
  Redstem plant response rating: 30
[7]; 16 g ai/ha
  Plant response rating, Redstem: 0
[8]; 32 g ai/ha
  Sedge, Umbrella plant response rating: 0
[8]; 64 g ai/ha
  Sedge, Umbrella plant response rating: 30
[8]; 125 g ai/ha
  Sedge, Umbrella plant response rating: 90
[8]; 250 g ai/ha
  Sedge, Umbrella plant response rating: 100
[8]; 16 g ai/ha
  Plant response rating, Sedge, Umbrella: 0
[9]; 32 g ai/ha
  Sprangletop, Brdd. plant response rating: 0
[9]; 64 g ai/ha
  Sprangletop, Brdd. plant response rating: 0
[9]; 125 g ai/ha
  Sprangletop, Brdd. plant response rating: 0
[9]; 250 g ai/ha
  Sprangletop, Brdd. plant response rating: 0
[9]; 16 g ai/ha
  Plant response rating, Sprangletop, Brdd.: 0
[10]; 32 g ai/ha
  Watergrass, Late plant response rating: 0
[10]; 64 g ai/ha
  Watergrass, Late plant response rating: 0
[10]; 125 g ai/ha
  Watergrass, Late plant response rating: 0
[10]; 250 g ai/ha
  Watergrass, Late plant response rating: 0
[10]; 16 g ai/ha
  Plant response rating, Watergrass, Late: 0
[11]; 32 g ai/ha
  Rice, Water Seeded plant response rating: 0
[11]; 64 g ai/ha
  Rice, Water Seeded plant response rating: 0
[11]; 125 g ai/ha
  Rice, Water Seeded plant response rating: 0
[11]; 250 g ai/ha
  Rice, Water Seeded plant response rating: 0
[11]; 16 g ai/ha
  Plant response rating, Rice, Water Seeded: 0
[12]; [18]
  Plant response rating, Velvetleaf: 85
[12]; [19]
  Plant response rating, Velvetleaf: 90
[12]; [20]
  Plant response rating, Velvetleaf: 35
[12]; [21]
  Plant response rating, Velvetleaf: 65
[13]; [18]
  Plant response rating, Barnyardgrass: 0
[13]; [19]
  Plant response rating, Barnyardgrass: 5
[13]; [20]
  Plant response rating, Barnyardgrass: 0
[13]; [21]
  Plant response rating, Barnyardgrass: 15
[14]; [18]
  Plant response rating, Crabgrass: 20
[14]; [19]
  Plant response rating, Crabgrass: 40
[14]; [20]
  Plant response rating, Crabgrass: 50
[14]; [21]
  Plant response rating, Crabgrass: 75
[15]; [18]
  Plant response rating, Pigweed: 90
[15]; [19]
  Plant response rating, Pigweed: 90
[15]; [20]
  Plant response rating, Pigweed: 65
[15]; [21]
  Plant response rating, Pigweed: 85
[16]; [18]
  Plant response rating, Foxtail, Giant: 0
[16]; [19]
  Plant response rating, Foxtail, Giant: 55
[16]; [20]
  Plant response rating, Foxtail, Giant: 10
[16]; [21]
  Plant response rating, Foxtail, Giant: 50
[17]; [18]
  Plant response rating, Morningglory: 75
[17]; [19]
  Plant response rating, Morningglory: 90
[17]; [20]
  Plant response rating, Morningglory: 0
[17]; [21]
  Plant response rating, Morningglory: 0
